One assay deals with IDH1 R132C (Homo sapiens, UniProt O75874, R132C). Put plainly: Effect on IDH1 R132C enzyme activity (NADPH consumption, diaphorase/resazurin fluorescence). The class given is biochemical. To be noted: 80 ng IDH1 R132C, α-KG 2 mM, NADPH 20 μM, 60 min preincubation. Here is the method: (§1) Test method: The enzyme activity of IDH1 converting α-KG to 2HG was measured by the consumption of NADPH. After the enzymatic reaction finished, the amount of residual NADPH can be reflected by fluorescence signal generated by the addition of catalytically excessive diphhorase and reazurin.
50 μL mixed liquid of substrate α-KG and NADPH (final concentration of substrate α-KG was 2 mM, final concentration of NADPH was 20 μM), and the plate was incubated in dark for 60 min at room temperature. Detection reaction: 50 μL 1×detection buffer diluted 0.01 unit diabase and 30 μM resazurin were added into each well, and the mixture was incubated in dark at room temperature for 10 min. […] IC50 value was calculated by GraphPad Prism software.
(Resazurin is reduced to fluorescent resorufin, in cell work by metabolically active cells.)

The target of the next assay is IDH1 R132H (Homo sapiens, UniProt O75874, R132H). Put plainly: Effect on IDH1 R132H enzyme activity (NADPH consumption, diaphorase/resazurin fluorescence). The assay is classed as biochemical. To be noted: 100 ng IDH1 R132H, α-KG 1 mM, NADPH 20 μM, 60 min preincubation. Here is the method: as §1
50 μL mixed liquid of substrate α-KG and NADPH (final concentration of substrate α-KG was 1 mM, final concentration of NADPH was 20 μM), and the mixture was incubated in dark for 60 min at room temperature. Detection reaction: 50 μL 1×detection buffer diluted 0.01 unit diabase and 30 μM resazurin were added into each well, and the mixture was incubated in dark at room temperature for 10 min. […] IC50 value was calculated by GraphPad Prism software.

Structures are written as SMILES.

For orientation: IC50 means the midpoint of a concentration-inhibition curve. The low end stands for greater potency in that assay, the high end for weaker potency in that assay.

IDH1 R132H, sequence (O75874 whole entry R132H): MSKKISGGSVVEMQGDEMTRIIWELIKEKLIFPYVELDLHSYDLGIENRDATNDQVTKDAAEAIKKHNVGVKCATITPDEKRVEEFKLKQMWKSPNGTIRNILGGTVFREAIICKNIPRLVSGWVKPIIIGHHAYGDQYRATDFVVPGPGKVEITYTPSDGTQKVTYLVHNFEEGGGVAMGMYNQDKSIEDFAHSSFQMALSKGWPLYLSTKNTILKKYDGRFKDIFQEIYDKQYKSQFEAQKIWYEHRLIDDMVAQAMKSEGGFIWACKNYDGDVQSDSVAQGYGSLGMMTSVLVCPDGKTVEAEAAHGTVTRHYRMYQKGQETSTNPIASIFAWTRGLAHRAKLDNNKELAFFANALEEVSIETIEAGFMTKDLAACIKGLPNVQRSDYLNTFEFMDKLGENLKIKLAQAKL
IDH1 R132C, sequence (O75874 whole entry R132C): as the sequence (O75874 whole entry R132H) above, with H132C counted along it

With `CC1Oc2cc(C(F)(F)F)ccc2-n2cnc([C@H](C)Nc3nccc(N4C(=O)OC[C@@H]4[C@H](C)F)n3)c21` (stereo partly drawn) [Compound 15, (4R)-4-((S)-1-fluoroethyl)-3-(2-(((1S)-1-(4-methyl-7-trifluoromethyl-4H-benzo[b]imidazo[1,5-d][1,4]oxazin-3-yl)ethyl)amino)pyrimidin-4-yl)oxazolidin-2-one], the IC50 against IDH1 R132C and against IDH1 R132H was 50 to 500 nM in each case.

As for `C[C@H](Nc1nccc(N2C(=O)OC[C@@H]2[C@H](C)F)n1)c1ncn2c1CCc1cc(F)ccc1-2` [Compound 11], the IC50 against IDH1 R132C is under 50 nM; against IDH1 R132H, 50 to 500 nM.

Take `CC1Cc2c([C@H](C)Nc3nccc(N4C(=O)OC[C@@H]4[C@H](C)F)n3)ncn2-c2ccc(C(F)(F)F)cc21` (stereo partly drawn) [Compound 10, (4R)-4-((S)-1-fluoroethyl)-3-(2-(((1S)-1-(5-methyl-7-trifluoromethyl-4,5-dihydroimidazo[1,5-a]quinolin-3-yl)ethyl)amino)pyrimidin-4-yl)oxazolidin-2-one]: the IC50 against IDH1 R132C and against IDH1 R132H was 50 to 500 nM throughout.

Take `CC1Cc2cc(C(F)(F)F)ccc2-n2cnc([C@H](C)Nc3nccc(N4C(=O)OC[C@@H]4[C@H](C)F)n3)c21` (stereo partly drawn) [Compound 14, (4R)-4-((S)-1-fluoroethyl)-3-(2-(((1S)-1-(4-methyl-7-trifluoromethyl-4,5-dihydroimidazo[1,5-a]quinolin-3-yl)ethyl)amino)pyrimidin-4-yl)oxazolidin-2-one]: the IC50 at IDH1 R132C and on IDH1 R132H was 50 to 500 nM throughout.

For the molecule `COc1ccc2c(c1)OCc1c([C@H](C)Nc3nccc(N4C(=O)OC[C@@H]4[C@H](C)F)n3)ncn1-2` [Compound 25, (R)-4-((S)-1-fluoroethyl)-3-(2-(((S)-1-(7-methoxy-4H-benzo[b]imidazo[1,5-d][1,4]oxazin-3-yl)ethyl)amino)pyrimidin-4-yl)oxazolidin-2-one], the IC50 against IDH1 R132C and against IDH1 R132H was 50 to 500 nM in each case.

Regarding `C[C@H](Nc1nccc(N2C(=O)OC[C@@H]2[C@H](C)F)n1)c1ncn2c1CCc1c(Cl)cccc1-2` [Compound 29, (R)-3-(2-(((S)-1-(6-chloro-4,5-dihydroimidazo[1,5-a]quinolin-3-yl)ethyl)amino)pyrimidin-4-yl)-4-((S)-1-fluoroethyl)oxazolidin-2-one], the IC50 against IDH1 R132C is 50 to 500 nM; against IDH1 R132H, under 50 nM.

In the case of `C[C@H](Nc1nccc(N2C(=O)OC[C@@H]2[C@H](C)F)n1)c1ncn2c1COc1cc(F)ccc1-2` [Compound 24, (R)-3-(2-(((S)-1-(7-fluoro-4H-benzo[b]imidazo[1,5-d][1,4]oxazin-3-yl)ethyl)amino)pyrimidin-4-yl)-4-((S)-1-fluoroethyl)oxazolidin-2-one], the IC50 at IDH1 R132C and on IDH1 R132H was under 50 nM each time.

`C[C@H](Nc1nccc(N2C(=O)OC[C@@H]2[C@H](C)F)n1)c1ncn2c1COc1cc(C#N)ccc1-2` [Compound 27, 3-((S)-1-((4-((R)-4-((S)-1-fluoroethyl)-2-oxyoxazolidin-3-yl)pyrimidin-2-yl)amino)ethyl)-4H-benzo[b]imidazo[1,5-d][1,4]oxazin-7-nitrile]: the IC50 on IDH1 R132C and against IDH1 R132H was 50 to 500 nM throughout.

As to `C[C@H](Nc1nccc(N2CC3(CC3)OC2=O)n1)c1ncn2c1CCc1cc(C(F)(F)F)ccc1-2` [Compound 19, (S)-6-(2-((1-(7-trifluoromethyl-4,5-dihydroimidazo[1,5-a]quinolin-3-yl)ethyl)amino)pyrimidin-4-yl)-4-oxa-6-azaspiro[2.4]heptan-5-one], the IC50 against IDH1 R132C and on IDH1 R132H was over 500 nM each time.

The record behind these values is US20210253595A1, “2-Aminopyrimidine Derivative and Preparation Method and Use Thereof” (Etern Biopharma (Shanghai) Co., Ltd., priority 2018, published 2021).
